The results in this text go back to US5147878A, “Aminoalkoxyphenyl derivatives, process of preparation and compositions containing the same” (Sanofi, priority 1986, dated 1992).

Where a name gives a salt, the structure may show the parent alone.

The assay relates to isolated rat aorta. As to the kind of experiment: Calcium inhibitory properties: contractile response to potassium-induced depolarization on isolated rat aorta. Set-up: species or system isolated organ, male Wistar rats. Particulars: for activity at 1 µM / activity at 0.1 µM / activity at 0.01 µM / activity at 0.001 µM: Rattus norvegicus, 1 h, read-out: % of the maximum contractional effect; for activity at 1 µM: 10^-6 M; for activity at 0.1 µM: 10^-7 M; for % of the maximum contractional effect: 60 min. An excerpt: It is well established that the depolarization of a smooth muscle membrane by potassium renders the latter permeable to extracellular calcium and induces muscle contraction. Consequently, the measurement of the inhibition of the contractile response to depolarization by potassium, or the measurement of a relaxation of the tonic contraction on potassium depolarization, can represent an evaluation of the power of a compound as an inhibitor of the membrane permeability to Ca^++ ions. The technique used was as follows: The aorta was removed from male Wistar rats weighing approximately 300 g, and cut into strips approximately 40 mm long and 3 mm wide. These fragments were placed in a 25-ml isolated organ trough containing a modified Krebs-bicarbonate solution (112 mM NaCl; 5 mM KCl; 25 mM NaHCO3; 1 mM KH2 PO4; 1.2 mM MgSO4; 2.5 mM CaCl2; 11.5 mM glucose, distilled water to 1000 ml) through which a stream of 5-7% carbon dioxide in oxygen was passed, and maintained at 37° C. The preparation was connected to a force microsensor and the contractile response recorded after amplification on a recorder. A tension of 2 g was applied to the preparation. This tension was maintained for 60 minutes in the modified Krebs-bicarbonate solution, and contractions were then induced by replacing the Krebs-bicarbonate solution by a potassium-Krebs solution (17 mM NaCl; 100 mM KCl; 25 mM NaHCO3; 1 mM KH2 PO4; 1.2 mM MgSO4; 2.5 mM CaCl2; 11.5 mM glucose; distilled water to 1000 ml). When the contractile response of the preparation had become reproducible, a given amount of a compound of the invention was introduced into the bath. Sixty minutes later, a new spasm was induced by potassium depolarization. The results obtained on the aorta used in the experiment were then expressed as a percentage of the maximum contractional effect before incubation with the test substance. By way of examples, the results which follow were obtained, the compounds of formula (1) being in the form of the base, hydrochloride or oxalate.

`COc1ccc(CCN(C)CCCOc2ccc(S(=O)(=O)c3c(C(C)C)n(C)c4ccccc34)cc2)cc1OC` [Ex. 109, 1-methyl-2-isopropyl-3-[4-{3-[N-methyl-N-(3,4-dimethoxy-β-phenethyl)amino]propyloxy}benzenesulphonyl]indole]: the activity at 1 µM is 0% and the activity at 0.1 µM was determined as 5.1%. Where the note is “10^-8 M”, the activity at 0.01 µM came out at 34.5%. For the same compound, the activity at 0.001 µM (10^-9 M) is 71.4%.
Regarding `CCCCN(CCCC)CCCOc1ccc(S(=O)(=O)c2c(C(C)C)n(C)c3ccccc23)cc1` [Ex. 110, 1-Methyl-2-isopropyl-3-{4-[3-(di-n-butylamino)propyloxy]benzenesulphonyl}indole acid oxalate], the activity at 1 µM was 0% and the activity at 0.1 µM is 15.1%. Further, the activity at 0.01 µM (10^-8 M) was 71%. Besides, where the note is “10^-9 M”, the activity at 0.001 µM was 84.6%.
As for `COc1ccc(CN(C)CCCOc2ccc(S(=O)(=O)c3c(C(C)C)n(C)c4ccccc34)cc2)cc1OC` [Ex. 111, 1-Methyl-2-isopropyl-3-[4-{3-[N-methyl-N-(3,4-dimethoxy-benzyl)amino]propyloxy}benzenesulphonyl]indole acid oxalate], the activity at 0.1 µM stood at 11.8%. For the same compound, under “10^-8 M”, the activity at 0.01 µM was found to be 25%. Besides, the activity at 0.001 µM (10^-9 M) stood at 81.8%.
`CC(C)c1c(S(=O)(=O)c2ccc(OCCCNC(C)(C)C)cc2)c2ccccc2n1C` [Ex. 112, 1-methyl-2-isopropyl-3-[4-{3-(tert-butylamino)propyloxy}benzenesulphonyl]indole]: the activity at 1 µM was found to be 8.1% and the activity at 0.1 µM was 51.7%. The activity at 0.01 µM (10^-8 M) turned out to be 84.5%.
As to `COc1ccc(CCN(C)CCCOc2ccc(S(=O)(=O)c3c(C(C)C)c4ccccc4n3C)cc2)cc1OC` [Ex. 113, 1-methyl-3-isopropyl-2-[4-{3-[N-methyl-N-(3,4-dimethoxy-β-phenethyl)amino]propyloxy}benzenesulphonyl]indole acid oxalate], the activity at 0.01 µM (10^-8 M) is 41.1%.
On to `COc1ccc(CCN(C)CCCOc2ccc(S(=O)(=O)c3ccccc3C(C)C)cc2)cc1OC` [Ex. 114, 2-isopropyl-1-[4-{3-[N-methyl-N-(3,4-dimethoxy-β-phenethyl)amino]propyloxy}benzenesulphonyl]benzene acid oxalate], for which the activity at 1 µM was determined as 3.7% and the activity at 0.1 µM stood at 21.7%. The activity at 0.01 µM (10^-8 M) was 59.3%. Moreover, under “10^-9 M”, the activity at 0.001 µM came to 93.3%.
For `CCCCN(CCCC)CCCOc1ccc(S(=O)(=O)c2ccccc2C(C)C)cc1` [Ex. 115, 2-Isopropyl-1-{4-[3-(di-n-butylamino)propyloxy]benzenesulphonyl}benzene acid oxalate], the activity at 0.1 µM is 43.2%. In addition, the activity at 0.001 µM (10^-9 M) is 89.1%.
For `CCc1ccccc1S(=O)(=O)c1ccc(OCCCN(C)CCc2ccc(OC)c(OC)c2)cc1` [Ex. 116, 2-Ethyl-1-[4-{3-[N-methyl-N-(3,4-dimethoxy-β-phenethyl)amino]propyloxy}benzenesulphonyl]benzene acid oxalate], the activity at 0.1 µM stood at 6%. Also, the activity at 0.01 µM (10^-8 M) came out at 66.1%. The activity at 0.001 µM (10^-9 M) came to 84.8%.
As for `CCCCN(CCCC)CCCOc1ccc(S(=O)(=O)c2ccccc2CC)cc1` [Ex. 117, 2-Ethyl-1-{4-[3-(di-n-butylamino)propyloxy]benzenesulphonyl}benzene acid oxalate], the activity at 1 µM worked out at 4.2% and the activity at 0.1 µM turned out to be 43.4%. Further, the activity at 0.01 µM (10^-8 M) was 85.1%.
On the same counts, the results for `CC(C)c1ccccc1S(=O)(=O)c1ccc(OCCCNC(C)(C)C)cc1` [Ex. 118, 2-isopropyl-1-[4-{3-(tert-butylamino)propyloxy}benzenesulphonyl]benzene acid oxalate] are 2.7%, 52.2% and 92.3%.
`CCc1ccccc1S(=O)(=O)c1ccc(OCCCNC(C)(C)C)cc1` [Ex. 119, 2-ethyl-1-[4-{3-(tert-butylamino)propyloxy}benzenesulphonyl]benzene acid oxalate]: the activity at 1 µM was found to be 32% and the activity at 0.1 µM was 83.3%.
As to `CCc1sc2c(c1S(=O)(=O)c1ccc(OCCCN(C)CCc3ccc(OC)c(OC)c3)cc1)CN(Cc1ccccc1Cl)CC2` [Ex. 120, 5-(2-chloro-benzyl)-2-ethyl-3-[4-{3-[N-methyl-N-(3,4-dimethoxy-β-phenethyl)amino]propyloxy}benzenesulphonyl]-4,5,6,7-tetrahydrothieno[3,2-c]pyridine oxalate], the activity at 1 µM is 59.8% and the activity at 0.1 µM is 68.7%. Also, the activity at 0.01 µM (10^-8 M) stood at 91.4%.
With `CCCCN(CCCC)CCCOc1ccc(S(=O)(=O)c2c(CC)sc3c2CN(Cc2ccccc2Cl)CC3)cc1` [Ex. 121, 5-(2-chloro-benzyl)-2-ethyl-3-{4-[3-(di-n-butylamino)propyloxy]benzenesulphonyl}-4,5,6,7-tetrahydro-thieno[3,2-c]pyridine dioxalate], the activity at 1 µM worked out at 66.2% and the activity at 0.1 µM was 77.5%. Moreover, where the note is “10^-8 M”, the activity at 0.01 µM was 85.7%.
Consider `CC(C)c1cc2ccccn2c1S(=O)(=O)c1ccc(OCCCNC(C)(C)C)cc1` [Ex. 122, 2-isopropyl-3-{4-[3-tert-butylamino)propyloxy]benzenesulphonyl}indolizine hydrochloride], for which the activity at 1 µM was found to be 5.4% and the activity at 0.1 µM was determined as 28.1%. Moreover, the activity at 0.01 µM (10^-8 M) stood at 76.1%. In addition, the activity at 0.001 µM (10^-9 M) was determined as 92.5%.
As to `CCCCN(CCCC)CCCOc1ccc(S(=O)(=O)c2c(CC)cc3ccccn23)cc1` [Ex. 123, 2-ethyl-3-{4-[3-(di-n-butylamino)propyloxy]benzenesulphonyl}indolizine acid oxalate], the activity at 1 µM came to 5.8% and the activity at 0.1 µM worked out at 16.8%. In addition, the activity at 0.01 µM (10^-8 M) stood at 54.6%. For the setting “10^-9 M”, the activity at 0.001 µM came out at 75.3%.
`CCCCN(CCCC)CCCOc1ccc(S(=O)(=O)c2ncsc2-c2ccccc2)cc1` [Ex. 124, 4-{4-[3-(di-n-butylamino)propyloxy]benzenesulphonyl}-5-phenyl-thiazole acid oxalate]: the activity at 1 µM was determined as 13.7% and the activity at 0.1 µM worked out at 66.7%. Moreover, for the setting “10^-8 M”, the activity at 0.01 µM came out at 90.6%.
As for `CCCCN(CCCC)CCCOc1ccc(S(=O)(=O)c2cn[nH]c2C(C)C)cc1` [Ex. 125, 4-{4-[3-(di-n-butylamino)propyloxy]benzenesulphonyl}-5-isopropyl-pyrazole acid oxalate], the activity at 1 µM stood at 79.3% and the activity at 0.1 µM is 90.4%. Further, under “head printed "10^-" (exponent missing; first of three columns before 10^-6 M)”, the “% of the maximum contractional effect” value was determined as 38.6%.
Turning to `CCCCN(CCCC)CCCOc1ccc(S(=O)(=O)c2c(-c3ccccc3)noc2C(C)C)cc1` [Ex. 126, 4-{4-[3-(di-n-butylamino)propyloxy]benzenesulphonyl}-5-isopropyl-3-phenyl-isoxazole], the activity at 1 µM was 10% and the activity at 0.1 µM stood at 38.7%. In addition, the activity at 0.01 µM (10^-8 M) came out at 75.8%.
For `CCCCN(CCCC)CCCOc1ccc(S(=O)(=O)c2ccc3ccccc3c2)cc1` [Ex. 127, 2-{4-[3-(di-n-butylamino)propyloxy]benzenesulphonyl}-naphthalene acid oxalate], the activity at 1 µM is 50.7% and the activity at 0.1 µM is 86.2%.
Consider `COc1cc(CCN(C)CCCOc2ccc(S(=O)(=O)c3c(C(C)C)cn4ccccc34)cc2)cc(OC)c1OC` [Ex. 134, 2-isopropyl-1-[4-{3-[N-methyl-N-(3,4,5-trimethoxy-β-phenethyl)amino]propyloxy}benzenesulphonyl]indolizine acid oxalate], for which the activity at 0.1 µM was found to be 18.9%. The activity at 0.01 µM (10^-8 M) was 21.4%. Also, the activity at 0.001 µM (10^-9 M) was determined as 65.7%.
Regarding `COc1cc(CCN(C)CCCOc2ccc(S(=O)(=O)c3c(C(C)C)cn4ccccc34)cc2)cc(C)c1OC.O=C(O)C(=O)O` [Ex. 135, 2-isopropyl-1-[4-{3-[N-methyl-N-(3,4-dimethoxy-5-methyl-β-phenethyl)amino]propyloxy}benzenesulphonyl]indolizine acid oxalate], the “% of the maximum contractional effect” value (10^-8 M, 0.01 µM) is given as 21.1%; the “% of the maximum contractional effect” value (10^-9 M, 0.001 µM) is given as 58.5%; the “% of the maximum contractional effect” value (10^-10 M, 0.0001 µM) is on record as 78.9%.
Consider `COc1cc(CCNCCCOc2ccc(S(=O)(=O)c3c(C(C)C)cn4ccccc34)cc2)cc(C)c1OC.O=C(O)C(=O)O` [Ex. 139, 2-isopropyl-1-[4-{3-[N-(3,4-dimethoxy-5-methyl-β-phenethyl)amino]propyloxy}benzenesulphonyl]-indolizine acid oxalate], for which the “% of the maximum contractional effect” value reads like this: (10^-8 M, 0.01 µM) 49%; (10^-9 M, 0.001 µM) 89%.
